# Tests used:
# human iTCR = molecular target: T1, human iTCR (Homo sapiens, UniProt P15813); assay: In vitro activation of human iTCR through a Jurkat reporter cell line (JiNKT, GFP under NFKB promoter) co-cultured with compound-loaded BWSTIM cells; type: cell-based; conditions: percentage of JiNKT cells expressing high levels of GFP by flow cytometry; BWSTIM loaded 4 hours, co-cultured 18 to 24 hours
# T1 sequence (P15813 1-335): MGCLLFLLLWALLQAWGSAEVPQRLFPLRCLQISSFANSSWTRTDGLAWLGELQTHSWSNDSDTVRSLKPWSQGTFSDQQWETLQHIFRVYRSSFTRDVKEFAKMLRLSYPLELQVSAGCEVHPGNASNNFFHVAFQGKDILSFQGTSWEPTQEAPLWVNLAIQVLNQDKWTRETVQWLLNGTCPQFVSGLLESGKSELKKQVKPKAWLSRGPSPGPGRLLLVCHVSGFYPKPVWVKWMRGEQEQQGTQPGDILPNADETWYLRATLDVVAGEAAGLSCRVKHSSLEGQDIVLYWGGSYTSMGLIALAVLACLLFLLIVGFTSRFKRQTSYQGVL
# Text: To determine the human iTCR activation potential induced by the compounds described herein, a Jurkat cell line (JiNKT) was transfected with the human iTCR, and GFP under the NFKB promoter (cell line licensed from the Medical University of Vienna). A BWS147 cell line (BWSTIM) was also transfected with CD80 and CD1d to act as the antigen-presenting cell.
# Any of the compounds provided herein may be used in this example, including the exemplary compounds of Tables 1 and 2. Test compounds were dissolved in DMSO at a 5 mg/mL stock solution. BWSTIM cells were loaded with test compounds at varying concentrations for 4 hours at 37° C. at a concentration of 20k cells/well in 200 μL of media in a u-bottom 96 well dish. BWSTIM cells were washed 2× with media, then incubated with JiNKT cells at a concentration of 80k cells/well in a u-bottom 96 well dish. Cells were co-cultured for 18 to 24 hours. The percentage of cells expressing high levels of GFP was measured through flow cytometry (after gating out the mCD45+ BWSTIM cells).
# C57BL/6J mice = assay: In vivo IFNγ activation and iNKT cell expansion in C57BL/6J mice; set-up: species or system mouse; conditions: 2 μg I.P.; for Naïve Mouse In Vivo IFNγ: average serum IFNγ by ELISA, twenty hours post-injection, eight weeks old C57BL/6J mice; for Naïve Mouse In Vivo CD3 + iNKT + cells (Fold increase over veh control): iNKT cells within splenocytes by flow cytometry, four days post-injection, C57BL/6J mice
# Description: Any of the compounds provided herein may be used in this example, including the exemplary compounds of Tables 1 and 2. To determine the expansion induced by the compounds described herein, test compounds were injected into C57BL/6J mice. Serum IFNγ levels and the expansion of iNKT cells within splenocytes was measured 4 days post-IP injection.
# Eight weeks old C57BL/6J mice were injected (I.P.) with 2 μg of test compounds. The test compounds were either dissolved in DMSO at a 5 mg/mL stock solution, or formulated into liposomes through thin-film rehydration, then extrusion through 200 nm filters. Liposome-based formulations were constructed using soy phosphatidylcholine, cholesterol, and test compound in a 2:1:0.15 ratio. Twenty hours post-injection, blood was collected from the tail to measure the level of serum IFNγ using an ELISA kit from Biolegend. Four days post-injection, the mice were sacrificed and the splenocytes were isolated. The percentage of iNKT cells within the spleens was measured using flow cytometry, selecting for live cells and mouse CD1d-α-GalCer tetramer+ cells.
# In response to injection of several exemplary compounds, the average serum IFNγ collected and fold change of cells are shown in Table B4 below.
SMILES,EC50 (human iTCR) [nM],Naïve Mouse In Vivo IFNγ (C57BL/6J mice) [pg/mL],Naïve Mouse In Vivo CD3 + iNKT + cells (Fold increase over veh control) (C57BL/6J mice)
"CCCCCCCCCCCCCCC[C@@H](O)[C@H](CO[C@H]1O[C@H](CO)[C@H](O)[C@H](O)[C@H]1O)NC(=O)CCCCCCCCCCCCCCCCCCCCCCCC12CC(F)(C1)C2 [Compound I-2, 24-(3-fluorobicyclo[1.1.1]pentan-1-yl)-N-((2S,3R)-3-hydroxy-1-(((2S,3R,4S,5R,6R)-3,4,5-trihydroxy-6-(hydroxymethyl)tetrahydro-2H-pyran-2-yl)oxy)octadecan-2-yl)tetracosanamide]",1780,8128 ± 1209,2.21 ± 0.38 Fold increase over veh control
"CCCCCCCCCCCCCC[C@@H](O)[C@@H](O)[C@H](CO[C@H]1O[C@H](COC(=O)CCc2ccccc2)[C@H](O)[C@H](O)[C@H]1O)NC(=O)CCCCCCCCCCCCCCCCCCCCCCCC12CC(F)(C1)C2 [Compound I-3, ((2R,3R,4S,5R,6S)-6-(((2S,3S,4R)-2-(24-(3-fluorobicyclo[1.1.1]pentan-1-yl)tetracosanamido)-3,4-dihydroxyoctadecyl)oxy)-3,4,5-trihydroxytetrahydro-2H-pyran-2-yl)methyl 3-phenylpropanoate]",908,8506 ± 790,1.12 ± 0.19 Fold increase over veh control
"CCCCCCCCCCCCCCC[C@@H](O)[C@H](CC[C@H]1O[C@H](COC(=O)CCc2ccccc2)[C@H](O)[C@H](O)[C@H]1O)NC(=O)CCCCCCCCCCCCCCCCCCCCCCCC12CC(F)(C1)C2 [Compound I-4, ((2R,3R,4R,5R,6R)-6-((3S,4R)-3-(24-(3-fluorobicyclo[1.1.1]pentan-1-yl)tetracosanamido)-4-hydroxynonadecyl)-3,4,5-trihydroxytetrahydro-2H-pyran-2-yl)methyl 3-phenylpropanoate]",621,28208 ± 4723,4.09 ± 0.78 Fold increase over veh control

# Now from value to molecule, other results behind:
EC50 (human iTCR) [nM],SMILES,Naïve Mouse In Vivo IFNγ (C57BL/6J mice) [pg/mL],Naïve Mouse In Vivo CD3 + iNKT + cells (Fold increase over veh control) (C57BL/6J mice)
797,"CCCCCCCCCCCCCCC[C@@H](O)[C@H](CO[C@H]1O[C@H](COC(=O)CCc2ccccc2)[C@H](O)[C@H](O)[C@H]1O)NC(=O)CCCCCCCCCCCCCCCCCCCCCCCC1CCS(=O)(=O)CC1 [Compound I-6, ((2R,3R,4S,5R,6S)-6-(((2S,3R)-2-(24-(1,1-dioxidotetrahydro-2H-thiopyran-4-yl)tetracosanamido)-3-hydroxyoctadecyl)oxy)-3,4,5-trihydroxytetrahydro-2H-pyran-2-yl)methyl 3-phenylpropanoate]",43930 ± 43396,1.89 ± 0.44 Fold increase over veh control
1180,"CCCCCCCCCCCCCC[C@@H](O)[C@@H](O)[C@H](CC[C@H]1O[C@H](CO)[C@H](O)[C@H](O)[C@H]1O)NC(=O)CCCCCCCCCCCCCCCCCCCCCCCC12CC(F)(C1)C2 [Compound I-7, N-((3S,4S,5R)-4,5-dihydroxy-1-((2R,3R,4R,5R,6R)-3,4,5-trihydroxy-6-(hydroxymethyl)tetrahydro-2H-pyran-2-yl)nonadecan-3-yl)-24-(3-fluorobicyclo[1.1.1]pentan-1-yl)tetracosanamide]",–,–
